Reference: PubChem BioAssay AID504481 (NMMLSC, 2011)
Active and inactive are the calls of the source.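 How the source made its calls: active means fold change below 0.65 in a panel strain, matching the primary screen cutoff; inactive means the rest.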

What was measured:
Test in all cases: GFP reporter expression in transducer deletion yeast, mechanism study for yeast TOR pathway modulator project, S. cerevisiae, transducer mutant strains, GFP-tagged proteins (AID 504481);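 further: 1 = DMSO wells as ratio of mean channel GFP fluorescence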
Conditions in all cases: S. cerevisiae transducer mutants, GFP-fusion expression, flow cytometry, 3 h
YNL142W = test system: YNL142W
YKL103C = test system: YKL103C
YCL025C = test system: YCL025C
BY4741 = test system: BY4741
YCR005C = test system: YCR005C
YBR084C-A = test system: YBR084C-A

Row | SMILES | fold change (YNL142W) | fold change (YKL103C) | fold change (YCL025C) | fold change (BY4741) | fold change (YCR005C) | fold change (YBR084C-A)
1 | C/C(=N\NC(=O)c1ccc(C(C)(C)C)cc1)c1ccccn1 | 0.97 (inactive) | 0.921 (inactive) | 1 (inactive) | 0.905 (inactive) | 1.47 (inactive) | 0.975 (inactive)
2 | N/C(Cc1ccc(Cl)cc1)=N\OC(=O)c1cccc2ccccc12 | 1.22 (inactive) | 1.44 (inactive) | 0.919 (inactive) | 1.27 (inactive) | 2.47 | 0.913 (inactive)
3 | CCSc1nnc(NC(=O)c2ccccn2)s1 | 1.05 (inactive) | 1.13 (inactive) | 0.982 (inactive) | 0.946 (inactive) | 0.897 (inactive) | 0.968 (inactive)
4 | CC(=O)SC(C[N+](=O)[O-])c1cn(C(C)=O)c2ccccc12 (stereo not drawn) | 0.785 (inactive) | 1.48 (inactive) | 0.77 (inactive) | 1 (inactive) | 0.93 (inactive) | 1.08 (inactive)
5 | CCCOc1ccc(C(=O)NNC(=S)NC(=O)CC)cc1 | 1.17 (inactive) | 2.42 | 1.05 (inactive) | 1.77 (inactive) | 1.21 (inactive) | 1.22 (inactive)
6 | COc1ccc(C(=O)NNC(=S)NC(=O)/C=C/c2cccs2)cc1 | 1.13 (inactive) | 1.51 | 1.38 (inactive) | 1.03 (inactive) | 1.07 (inactive) | 1.23 (inactive)
7 | CC(Oc1ccc(Cl)cc1)C(=O)NNC(=S)NC(=O)c1ccco1 (stereo not drawn) | 1.33 (inactive) | 2.14 | 0.906 (inactive) | 1.49 (inactive) | 1.21 (inactive) | 1.09 (inactive)
8 | O=[N+]([O-])c1cc(S(=O)(=O)C(F)(F)F)ccc1Sc1nc2ccccc2s1 | 1.02 (inactive) | 2.03 | 1.09 (inactive) | 1.03 (inactive) | 1.09 (inactive) | 1.03 (inactive)
9 | Cc1ccc(C(=O)NNC(=S)NC(=O)COc2ccccc2)cc1 | 1.08 (inactive) | 1.93 | 1 (inactive) | 1.28 (inactive) | 1.34 (inactive) | 1.19 (inactive)
10 | O=C(NC(=S)NNC(=O)c1cnccn1)c1ccc(F)cc1 | 1.23 (inactive) | 1.54 | 1.02 (inactive) | 1.1 (inactive) | 0.816 (inactive) | 0.875 (inactive)
11 | Cc1ccc(C(c2cc(Cl)c3cccnc3c2O)N2CCN(C)CC2)cc1 (stereo not drawn) | 1.03 (inactive) | 1.8 | 1.06 (inactive) | 0.978 (inactive) | 0.889 (inactive) | 1.03 (inactive)
12 | CC(C)(C)n1nc(-c2ccc(Cl)cc2)c2c(N)ncnc21 | 0.924 (inactive) | 1.03 (inactive) | 0.899 (inactive) | 0.757 (inactive) | 0.358 (inactive) | 0.489
13 | Cc1ccc(/C=C2/C(=O)ON=C2c2ccccc2)o1 | 1.23 (inactive) | 1.61 | 0.837 (inactive) | 1.42 (inactive) | 1.47 (inactive) | 0.942 (inactive)
